{
  "source": "patent US8163790B2",
  "about": "“Metronidazole cocrystals and imipramine cocrystals” (New Form Pharmaceuticals, Inc., priority 2005, dated 2012)",
  "key": {"[1]": {"conditions": "water at 23° C., 900 mL, 100 rpm"}, "[2]": {"conditions": "intrinsic dissolution, 900 mL, 100 rpm, 0.50 cm^2; media 34 mM aqueous NaCl, water at 37° C., water at ambient temperature (medium of the value not stated); relative to imipramine HCl"}, "[3]": {"assay": "Intrinsic dissolution of metronidazole:gallic acid cocrystal (Woods apparatus, UV 318 nm)", "type": "physicochemical", "conditions": "water at 37° C., 900 mL, 100 rpm, 0.50 cm^2, relative to metronidazole", "method": "Samples of metronidazole and the metronidazole cocrystal were compressed at 1000 psi for approximately one minute. […] A dissolution medium of water was used at 37° C. […] Metronidazole and the metronidazole:gallic acid cocrystal solutions were analyzed with a Cary 50 UV-VIS single-beam spectrophotometer without dilution at room temperature in a 1.000 cm quartz cuvette. […] Wavelength calibration was performed using holmium oxide."}},
  "data": [
    {"smiles": "CN(C)CCCN1c2ccccc2CCc2ccccc21.Cl.O=C(O)c1ccc2ccccc2c1O", "values": [
      {"measurement": "imipramine HCl dissolved from the cocrystal", "setting": "[1]; at 300 minutes", "result": "less than 0.0063 mg/mL"},
      {"measurement": "dissolution rate compared with imipramine HCl (in words)", "setting": "[1]; intrinsic dissolution, rate too slow to quantify accurately", "result": "much slower rate"}
    ]},
    {"smiles": "CN(C)CCCN1c2ccccc2CCc2ccccc21.Cl", "note": "[imipramine HCl, Imipramine hydrochloride, reference compound]", "values": [
      {"measurement": "imipramine dissolved from imipramine HCl", "setting": "[1]; in two minutes", "result": 0.013, "unit": "mg/mL"}
    ]},
    {"smiles": "CN(C)CCCN1c2ccccc2CCc2ccccc21.CN(C)CCCN1c2ccccc2CCc2ccccc21.Cl.Cl.O=C(O)C=CC(=O)O", "note": "[imipramine HCl:fumaric acid cocrystal]", "values": [
      {"measurement": "dissolution rate of the cocrystal as % of the rate of imipramine HCl", "setting": "[2]", "result": "about 58%"}
    ]},
    {"smiles": "Cc1ncc([N+](=O)[O-])n1CCO.O=C(O)c1cc(O)c(O)c(O)c1", "note": "[metronidazole:gallic acid cocrystal]", "values": [
      {"measurement": "dissolution rate of the cocrystal as % of the rate of metronidazole", "setting": "[3]", "result": "about 22%"}
    ]}
  ]
}
